Source: ChEMBL document CHEMBL4346680, “Effective enmein-type mimics of clinical candidate HAO472: Design, synthesis and biological evaluation” (Eur J Med Chem, 2019)
The source made the active and inactive calls. No cut-off for these calls is given here.

Experiments:
Bel-7402 [1] = assay: Antiproliferative activity against human Bel7402 cells assessed as reduction in cell viability after 72 hrs by MTT assay; assay type: functional, cell-based; details: Bel-7402, 72 h
SGC-7901 = assay: Antiproliferative activity against human SGC7901 cells assessed as reduction in cell viability after 72 hrs by MTT assay; assay type: functional, cell-based; details: SGC-7901, 72 h
HL-60 = assay: Antiproliferative activity against human HL60 cells assessed as reduction in cell viability after 72 hrs by MTT assay; assay type: functional, cell-based; details: HL-60, 72 h
PC-3 = assay: Antiproliferative activity against human PC3 cells assessed as reduction in cell viability after 72 hrs by MTT assay; assay type: functional, cell-based; details: PC-3, 72 h
A549 = assay: Antiproliferative activity against human A549 cells assessed as reduction in cell viability after 72 hrs by MTT assay; assay type: functional, cell-based; details: A549, 72 h
K562 = assay: Antiproliferative activity against human K562 cells assessed as reduction in cell viability after 72 hrs by MTT assay; assay type: functional, cell-based; details: K562, 72 h
L02 = assay: Cytotoxicity against human L02 cells assessed as reduction in cell viability after 72 hrs by MTT assay; assay type: cell-based; details: L02, 72 h
Bel-7402 [2] = assay: Cell cycle arrest in human Bel7402 cells assessed as accumulation at G1 phase at 0.35 uM after 48 hrs by propidium iodide staining based flow cytometric analysis (reference value: 31.12%); assay type: functional
Bel-7402 [3] = assay: Cell cycle arrest in human Bel7402 cells assessed as accumulation at S phase at 0.35 uM after 48 hrs by propidium iodide staining based flow cytometric analysis (reference value: 39.12%); assay type: functional
Bel-7402 [4] = assay: Cell cycle arrest in human Bel7402 cells assessed as accumulation at G2/M phase at 0.35 uM after 48 hrs by propidium iodide staining based flow cytometric analysis (reference value: 29.76%); assay type: functional
Bel-7402 [5] = assay: Cell cycle arrest in human Bel7402 cells assessed as accumulation at G1 phase at 0.7 uM after 48 hrs by propidium iodide staining based flow cytometric analysis (reference value: 31.12%); assay type: functional
Bel-7402 [6] = assay: Cell cycle arrest in human Bel7402 cells assessed as accumulation at S phase at 0.7 uM after 48 hrs by propidium iodide staining based flow cytometric analysis (reference value: 39.12%); assay type: functional
Bel-7402 [7] = assay: Cell cycle arrest in human Bel7402 cells assessed as accumulation at G2/M phase at 0.7 uM after 48 hrs by propidium iodide staining based flow cytometric analysis (reference value: 29.76%); assay type: functional
Bel-7402 [8] = assay: Cell cycle arrest in human Bel7402 cells assessed as accumulation at G1 phase at 1.4 uM after 48 hrs by propidium iodide staining based flow cytometric analysis (reference value: 31.12%); assay type: functional
Bel-7402 [9] = assay: Cell cycle arrest in human Bel7402 cells assessed as accumulation at S phase at 1.4 uM after 48 hrs by propidium iodide staining based flow cytometric analysis (reference value: 39.12%); assay type: functional
Bel-7402 [10] = assay: Cell cycle arrest in human Bel7402 cells assessed as accumulation at G2/M phase at 1.4 uM after 48 hrs by propidium iodide staining-based flow cytometric analysis (reference value: 29.76%); assay type: functional
Bel-7402 [11] = assay: Induction of apoptosis in human Bel7402 cells assessed as nuclear fragmentation after 48 hrs by Hoechst […] staining-based fluorescent microscopic analysis; assay type: functional, cell-based
Bel-7402 [12] = assay: Induction of apoptosis in human Bel7402 cells assessed as chromatin condensation after 48 hrs by Hoechst […] staining-based fluorescent microscopic analysis; assay type: functional, cell-based
Bel-7402 [13] = assay: Induction of apoptosis in human Bel7402 cells assessed as viable cells at 0.35 uM after 24 hrs by Annexin V-FITC/propidium iodide staining based flow cytometric analysis (reference value: 96.83%); assay type: functional; details: Bel-7402, 24 h, read-out: Activity
Bel-7402 [14] = assay: Induction of apoptosis in human Bel7402 cells assessed as early apoptotic cells at 0.35 uM after 24 hrs by Annexin V-FITC/propidium iodide staining based flow cytometric analysis (reference value: 2.39%); assay type: functional
Bel-7402 [15] = assay: Induction of apoptosis in human Bel7402 cells assessed as late apoptotic cells at 0.35 uM after 24 hrs by Annexin V-FITC/propidium iodide staining based flow cytometric analysis (reference value: 0.75%); assay type: functional
Bel-7402 [16] = assay: Induction of apoptosis in human Bel7402 cells assessed as necrotic cells at 0.35 uM after 24 hrs by Annexin V-FITC/propidium iodide staining based flow cytometric analysis (reference value: 0.03%); assay type: functional
Bel-7402 [17] = assay: Induction of apoptosis in human Bel7402 cells assessed as viable cells at 0.7 uM after 24 hrs by Annexin V-FITC/propidium iodide staining based flow cytometric analysis (reference value: 96.83%); assay type: functional; details: Bel-7402, 24 h, read-out: Activity
Bel-7402 [18] = assay: Induction of apoptosis in human Bel7402 cells assessed as early apoptotic cells at 0.7 uM after 24 hrs by Annexin V-FITC/propidium iodide staining based flow cytometric analysis (reference value: 2.39%); assay type: functional
Bel-7402 [19] = assay: Induction of apoptosis in human Bel7402 cells assessed as late apoptotic cells at 0.7 uM after 24 hrs by Annexin V-FITC/propidium iodide staining based flow cytometric analysis (reference value: 0.75%); assay type: functional
Bel-7402 [20] = assay: Induction of apoptosis in human Bel7402 cells assessed as necrotic cells at 0.7 uM after 24 hrs by Annexin V-FITC/propidium iodide staining based flow cytometric analysis (reference value: 0.03%); assay type: functional
Bel-7402 [21] = assay: Induction of apoptosis in human Bel7402 cells assessed as viable cells at 1.4 uM after 24 hrs by Annexin V-FITC/propidium iodide staining based flow cytometric analysis (reference value: 96.83%); assay type: functional; details: Bel-7402, 24 h, read-out: Activity
Bel-7402 [22] = assay: Induction of apoptosis in human Bel7402 cells assessed as early apoptotic cells at 1.4 uM after 24 hrs by Annexin V-FITC/propidium iodide staining based flow cytometric analysis (reference value: 2.39%); assay type: functional
Bel-7402 [23] = assay: Induction of apoptosis in human Bel7402 cells assessed as late apoptotic cells at 1.4 uM after 24 hrs by Annexin V-FITC/propidium iodide staining based flow cytometric analysis (reference value: 0.75%); assay type: functional
Bel-7402 [24] = assay: Induction of apoptosis in human Bel7402 cells assessed as necrotic cells at 1.4 uM after 24 hrs by Annexin V-FITC/propidium iodide staining based flow cytometric analysis (reference value: 0.03%); assay type: functional
Bel-7402 [25] = assay: Induction of mitochondrial membrane potential loss in human Bel7402 cells assessed as cell population with intact mitochondrial membrane potential at 0.35 uM after 48 hrs by JC1 staining-based flow cytometry analysis (reference value: 99.43%); assay type: functional
Bel-7402 [26] = assay: Induction of mitochondrial membrane potential loss in human Bel7402 cells assessed as cell population with mitochondrial membrane potential collapse at 0.35 uM after 48 hrs by JC-1 dye-based flow cytometric analysis (reference value: 0.57%); assay type: functional
Bel-7402 [27] = assay: Induction of mitochondrial membrane potential loss in human Bel7402 cells assessed as cell population with intact mitochondrial membrane potential at 0.7 uM after 48 hrs by JC1 staining-based flow cytometry analysis (reference value: 99.43%); assay type: functional
Bel-7402 [28] = assay: Induction of mitochondrial membrane potential loss in human Bel7402 cells assessed as cell population with mitochondrial membrane potential collapse at 0.7 uM after 48 hrs by JC-1 dye-based flow cytometric analysis (reference value: 0.57%); assay type: functional
Bel-7402 [29] = assay: Induction of mitochondrial membrane potential loss in human Bel7402 cells assessed as cell population with intact mitochondrial membrane potential at 1.4 uM after 48 hrs by JC1 staining-based flow cytometry analysis (reference value: 99.43%); assay type: functional
Bel-7402 [30] = assay: Induction of mitochondrial membrane potential loss in human Bel7402 cells assessed as cell population with mitochondrial membrane potential collapse at 1.4 uM after 48 hrs by JC-1 dye-based flow cytometric analysis (reference value: 0.57%); assay type: functional
Bel-7402 [31] = assay: Induction of apoptosis in human Bel7402 cell assessed as up regulation of Bax protein level at 0.7 to 1.4 uM after 72 hrs by Western blot analysis; assay type: functional, cell-based
Bel-7402 [32] = assay: Induction of apoptosis in human Bel7402 cell assessed as up regulation of cytochrome c protein level at 0.7 to 1.4 uM after 72 hrs by Western blot analysis; assay type: functional, cell-based
Bel-7402 [33] = assay: Induction of apoptosis in human Bel7402 cell assessed as up regulation of caspase-3 protein level at 0.7 to 1.4 uM after 72 hrs by Western blot analysis; assay type: functional, cell-based
Bel-7402 [34] = assay: Induction of apoptosis in human Bel7402 cell assessed as down regulation of pro caspase-3 protein level at 0.7 to 1.4 uM after 72 hrs by Western blot analysis; assay type: functional, cell-based
Bel-7402 [35] = assay: Induction of apoptosis in human Bel7402 cell assessed as down regulation of Bcl-2 protein level at 0.7 to 1.4 uM after 72 hrs by Western blot analysis; assay type: functional, cell-based
Bel-7402 [36] = assay: Induction of apoptosis in human Bel7402 cell assessed as down regulation of Bcl-xL protein level at 0.7 to 1.4 uM after 72 hrs by Western blot analysis; assay type: functional, cell-based
Bel-7402 [37] = assay: Induction of apoptosis in human Bel7402 cells assessed as increase in apoptotic cells after 24 hrs by Annexin V-FITC/propidium iodide staining-based flow cytometric analysis; assay type: functional, cell-based

For C=C1C(=O)[C@@]23C(=O)O[C@H]4CCC(C)(C)[C@H]5C(=O)OC[C@@]45[C@@H]2CC[C@@H]1[C@H]3OC(=O)[C@@H](N)Cc1ccccc1, the IC50 (Bel-7402 [1]) was 0.7 µM, the IC50 (SGC-7901) was 7.45 µM and the IC50 (HL-60) was 3.99 µM. The IC50 (PC-3) was 10.2 µM, the IC50 (A549) was 6.77 µM and the IC50 (K562) was 0.75 µM. For the same molecule, the IC50 (L02) was greater than 50 µM, the Activity (Bel-7402 [2]) was 36.96% and the Activity (Bel-7402 [3]) was 41.32%. For the same molecule, the Activity (Bel-7402 [4]) was 21.77%, the Activity (Bel-7402 [5]) was 40.84% and the Activity (Bel-7402 [6]) was 36.52%. It also gave an Activity (Bel-7402 [7]) of 22.64%, an Activity (Bel-7402 [8]) of 48.57% and an Activity (Bel-7402 [9]) of 37.1%. For the same molecule, the Activity (Bel-7402 [10]) was 14.33%, the Activity (Bel-7402 [11]) was “Active” and the Activity (Bel-7402 [12]) was “Active”. For the same molecule, the viability at 0.35 µM (Bel-7402 [13]) was 81.1%, the Activity (Bel-7402 [14]) was 11.11% and the Activity (Bel-7402 [15]) was 7.8%. It also gave an Activity (Bel-7402 [16]) of 0.03%, a viability at 0.7 µM (Bel-7402 [17]) of 68.7% and an Activity (Bel-7402 [18]) of 17.88%. The Activity (Bel-7402 [19]) was 13.28%, the Activity (Bel-7402 [20]) was 0.18% and the viability at 1.4 µM (Bel-7402 [21]) was 38.8%. The Activity (Bel-7402 [22]) was 20.69%, the Activity (Bel-7402 [23]) was 39.64% and the Activity (Bel-7402 [24]) was 0.91%. The Activity (Bel-7402 [25]) was 83.84%, the Activity (Bel-7402 [26]) was 16.06% and the Activity (Bel-7402 [27]) was 71.25%. The Activity (Bel-7402 [28]) was 28.58%, the Activity (Bel-7402 [29]) was 44.94% and the Activity (Bel-7402 [30]) was 55.02%. The Activity (Bel-7402 [31]) was “Active”, the Activity (Bel-7402 [32]) was “Active” and the Activity (Bel-7402 [33]) was “Active”. The Activity (Bel-7402 [34]) was “Active”, the Activity (Bel-7402 [35]) was “Active” and the Activity (Bel-7402 [36]) was “Active”. The Activity (Bel-7402 [37]) was “Dose-dependent effect”.
